Experimental findings from US20120152149A1, “USE OF 1,3-DIOLS AS BIOCIDES” (BASF SE, priority 2009, published 2012) are described below.

Where two headings read alike, the source gives them in different places.

Type in all cases: cell-based
One assay concerns C. albicans NCPF 3179. Kind of assay: Microstatic activity, MIC in tryptone soy broth. Particulars: Candida albicans, NCPF3179, 120 h, 25° C., 5 days. Here is the method:
(§1) For this, in each case a 40 percent strength by weight solution of a diol in propylene glycol was prepared at 60° C. This solution was diluted with a double-strength soy solution (double-strength tryptone soy broth) as nutrient medium in the volume ratio 1:1. Further dilution with soy solution produced solutions with the following concentrations: 400 000 ppm (40%), 200 000 ppm (20%), 100 000 ppm (10%), 50 000 ppm (5%), 25 000 ppm (2.5%), 12 500 ppm (1.25%), 6250 ppm (0.625%), 3125 ppm (0.3125%). Pure soy solution was used as negative control. The positive control used was a solution of 5 ml of soy solution which has been treated with 0.1 ml of the respective microorganism. The test solutions consisted of 5 ml of the above-described soy solutions of the diols in the particular concentration which have been mixed with 0.1 ml of the respective microorganism. The samples and controls were incubated in the case of the bacteria at 30° C. for 48 hours, and in the case of fungi over 5 days at 25° C. In each case, the MIC (Minimum Inhibitory Concentration) value was determined. This value indicates the minimum concentration above which the growth of the microorganisms was visibly hindered compared to the corresponding sample without addition of the diol. […] For example, this was evident from the occurrence of clouding or visible growth of the microorganism. […] The MIC value stated is a range between the next higher concentration of a positive test and the same and/or lower concentration of a first negative test.

The subject of another assay is E. coli NCIMB 8545. Kind of assay: Microstatic activity, MIC in tryptone soy broth. Particulars: 48 hours; for MIC: Escherichia coli, NCIMB8545, 30° C. Here is the method:
as §1

The test system of assay [1] is P. aeruginosa NCIMB 10421. Kind of assay: Microstatic activity, MIC in tryptone soy broth. Particulars: Pseudomonas aeruginosa, NCIMB10421, 30° C., 48 hours. Here is the method: as §1
For the next assay, the system named is P. vulgaris NCIMB 4175. Kind of assay: Microstatic activity, MIC in tryptone soy broth. Particulars: Proteus vulgaris, NCIMB4175, 30° C., 48 hours. Here is the method:
as §1

Another assay has as its system S. aureus NCIMB 9578. Kind of assay: Microstatic activity, MIC in tryptone soy broth. Particulars: Staphylococcus aureus, NCIMB9578, 30° C., 48 hours. Here is the method: as §1
The subject of the next assay is A. niger IMI 149007. Kind of assay: Microstatic activity, MIC in tryptone soy broth. Particulars: Aspergillus niger, IMI149007, 120 h, 25° C., 5 days. Here is the method: as §1
The test system of assay [2] is series of tested microorganisms (bacteria and fungi). Kind of assay: Microstatic activity, highest MIC from the series of tested microorganisms. Particulars: highest measured MIC from the series of tested microorganisms. The method, then: The following microorganisms were used;to test the biocidal effect against various bacteria and fungi: In each case, the MIC (Minimum Inhibitory Concentration) value was determined. This value indicates the minimum concentration above which the growth of the microorganisms was visibly hindered compared to the corresponding sample without addition of the diol. The MIC value stated is a range between the next higher concentration of a positive test and the same and/or lower concentration of a first negative test. In the last line of each of the tables below, a “maximum” value is listed. This value indicates the highest measured MIC value in each case from the series of tested microorganisms.

Setting [3] is: lower limit of MIC range, read-out: MIC value (ppm of diol), from.
The mark [4] stands for this setting: upper limit of MIC range, read-out: MIC value (ppm of diol), to.
Setting [5] is: lower limit, read-out: Maximum MIC value (ppm of diol), from.
The mark [6] stands for this setting: upper limit, read-out: Maximum MIC value (ppm of diol), to.

As to `CC(O)CC(C)O` (stereo not drawn) [2,4-Pentanediol, 2,4-pentanediol, reference compound], the MIC in the assay on C. albicans NCPF 3179 (setting [3]) was above 50 mg/mL; in the assay with C. albicans NCPF 3179 (setting [4]), at most 100 mg/mL; with E. coli NCIMB 8545 (setting [3]), above 50 mg/mL; in the assay on E. coli NCIMB 8545 (setting [4]), at most 100 mg/mL; in assay [1] (setting [3]), above 50 mg/mL; in assay [1] (setting [4]), at most 100 mg/mL. Also, the MIC in the assay with P. vulgaris NCIMB 4175 (setting [3]) is above 50 mg/mL; in the assay with P. vulgaris NCIMB 4175 (setting [4]), at most 100 mg/mL; in the assay on S. aureus NCIMB 9578 (setting [3]) it was above 50 mg/mL; with S. aureus NCIMB 9578 (setting [4]), at most 100 mg/mL.

For `CCCCC(CC)(CO)CO` [BEPD, 2-butyl-2-ethylpropane-1,3-diol], the MIC in the assay on A. niger IMI 149007 (setting [3]) was above 12.5 mg/mL; in the assay on A. niger IMI 149007 (setting [4]), at most 25 mg/mL; in the assay on C. albicans NCPF 3179 (setting [3]), above 25 mg/mL; with C. albicans NCPF 3179 (setting [4]), at most 50 mg/mL; with E. coli NCIMB 8545 (setting [3]) it was above 6.25 mg/mL; in the assay on E. coli NCIMB 8545 (setting [4]) it was at most 12.5 mg/mL. For the same compound, the MIC in assay [1] (setting [3]) was above 50 mg/mL; in assay [1] (setting [4]) it was at most 100 mg/mL; in the assay on P. vulgaris NCIMB 4175 (setting [3]), above 3.12 mg/mL; in the assay with P. vulgaris NCIMB 4175 (setting [4]) it was at most 6.25 mg/mL; in the assay on S. aureus NCIMB 9578 (setting [3]) it was above 12.5 mg/mL; in the assay on S. aureus NCIMB 9578 (setting [4]), at most 25 mg/mL. The figures for the MIC in assay [2] (setting [5]) and in assay [2] (setting [6]) were above 50 mg/mL and at most 100 mg/mL, respectively.

For the compound `OCC1(CO)CCCCC1` [DMCH, 1,1-dimethylolcyclohexane], the minimal inhibitory concentration (MIC) is above 25 mg/mL in the assay on A. niger IMI 149007 (setting [3]); at most 50 mg/mL in the assay with A. niger IMI 149007 (setting [4]); above 25 mg/mL in the assay with C. albicans NCPF 3179 (setting [3]); at most 50 mg/mL in the assay with C. albicans NCPF 3179 (setting [4]); above 6.25 mg/mL in the assay on E. coli NCIMB 8545 (setting [3]); at most 12.5 mg/mL in the assay with E. coli NCIMB 8545 (setting [4]). For the same compound, the MIC in assay [1] (setting [3]) is above 12.5 mg/mL; in assay [1] (setting [4]), at most 25 mg/mL; in the assay on P. vulgaris NCIMB 4175 (setting [3]), above 12.5 mg/mL; in the assay with P. vulgaris NCIMB 4175 (setting [4]) it was at most 25 mg/mL; in the assay with S. aureus NCIMB 9578 (setting [3]), above 12.5 mg/mL; with S. aureus NCIMB 9578 (setting [4]), at most 25 mg/mL. Besides, the values for the MIC in assay [2] (setting [5]) and in assay [2] (setting [6]) were above 25 mg/mL and at most 50 mg/mL, respectively.

In the case of `OCC1(CO)CCCCCCC1` [DMCO, 1,1-dimethylolcyclooctane], the MIC in the assay on A. niger IMI 149007 (setting [3]) was above 6.25 mg/mL; in the assay on A. niger IMI 149007 (setting [4]), at most 12.5 mg/mL; with C. albicans NCPF 3179 (setting [3]), above 6.25 mg/mL; in the assay with C. albicans NCPF 3179 (setting [4]) it was at most 12.5 mg/mL; with E. coli NCIMB 8545 (setting [3]), above 3.12 mg/mL; in the assay with E. coli NCIMB 8545 (setting [4]), at most 6.25 mg/mL. Further, the MIC in assay [1] (setting [3]) is above 12.5 mg/mL; in assay [1] (setting [4]), at most 25 mg/mL; in the assay with P. vulgaris NCIMB 4175 (setting [3]), above 6.25 mg/mL; in the assay on P. vulgaris NCIMB 4175 (setting [4]) it was at most 12.5 mg/mL; in the assay with S. aureus NCIMB 9578 (setting [3]), above 6.25 mg/mL; in the assay on S. aureus NCIMB 9578 (setting [4]) it was at most 12.5 mg/mL. In addition, the MIC in assay [2] (setting [5]) was above 12.5 mg/mL; in assay [2] (setting [6]) it was at most 25 mg/mL.

As for `OCC1(CO)CC/C=C\CCC1` [DMCOE, 1,1-dimethylolcyclooct-4-ene], the MIC is above 12.5 mg/mL in the assay with A. niger IMI 149007 (setting [3]); at most 25 mg/mL with A. niger IMI 149007 (setting [4]); above 12.5 mg/mL in the assay on C. albicans NCPF 3179 (setting [3]); at most 25 mg/mL with C. albicans NCPF 3179 (setting [4]); above 3.12 mg/mL in the assay with E. coli NCIMB 8545 (setting [3]); at most 6.25 mg/mL with E. coli NCIMB 8545 (setting [4]). Besides, the MIC is above 12.5 mg/mL in assay [1] (setting [3]); at most 25 mg/mL in assay [1] (setting [4]); above 3.12 mg/mL with P. vulgaris NCIMB 4175 (setting [3]); at most 6.25 mg/mL with P. vulgaris NCIMB 4175 (setting [4]); above 6.25 mg/mL in the assay on S. aureus NCIMB 9578 (setting [3]); at most 12.5 mg/mL in the assay with S. aureus NCIMB 9578 (setting [4]). Moreover, the MIC in assay [2] (setting [5]) is above 12.5 mg/mL; in assay [2] (setting [6]) it was at most 25 mg/mL.

As for `CCC(C)(CO)CO` [EMPD, 2-ethyl-2-methylpropane-1,3-diol], the MIC with A. niger IMI 149007 (setting [3]) is above 50 mg/mL; in the assay with A. niger IMI 149007 (setting [4]), at most 100 mg/mL; with C. albicans NCPF 3179 (setting [3]), above 50 mg/mL; with C. albicans NCPF 3179 (setting [4]), at most 100 mg/mL; with E. coli NCIMB 8545 (setting [3]), above 12.5 mg/mL; in the assay on E. coli NCIMB 8545 (setting [4]), at most 25 mg/mL. Moreover, the MIC is above 12.5 mg/mL in assay [1] (setting [3]); at most 25 mg/mL in assay [1] (setting [4]); above 25 mg/mL in the assay on P. vulgaris NCIMB 4175 (setting [3]); at most 50 mg/mL in the assay with P. vulgaris NCIMB 4175 (setting [4]); above 25 mg/mL in the assay with S. aureus NCIMB 9578 (setting [3]); at most 50 mg/mL with S. aureus NCIMB 9578 (setting [4]). The values for the MIC in assay [2] (setting [5]) and in assay [2] (setting [6]) were above 50 mg/mL and at most 100 mg/mL, respectively.

Take `CC(C)CCC(CO)(CO)C(C)C` [IMBPD, 2-isopropyl-2-(3-methylbutyl)propane-1,3-diol]: the MIC in the assay with A. niger IMI 149007 (setting [3]) was above 12.5 mg/mL; in the assay with A. niger IMI 149007 (setting [4]), at most 25 mg/mL; in the assay with C. albicans NCPF 3179 (setting [3]), above 25 mg/mL; in the assay on C. albicans NCPF 3179 (setting [4]), at most 50 mg/mL; in the assay with E. coli NCIMB 8545 (setting [3]) it was above 25 mg/mL; in the assay on E. coli NCIMB 8545 (setting [4]), at most 50 mg/mL. Also, the MIC in assay [1] (setting [3]) is above 100 mg/mL; in the assay with P. vulgaris NCIMB 4175 (setting [3]), above 50 mg/mL; in the assay on P. vulgaris NCIMB 4175 (setting [4]), at most 100 mg/mL; in the assay on S. aureus NCIMB 9578 (setting [3]), above 50 mg/mL; in the assay on S. aureus NCIMB 9578 (setting [4]), at most 100 mg/mL; in assay [2] (setting [5]), above 100 mg/mL.

As for `CC(CO)(CO)c1ccccc1` [MPPD, 2-methyl-2-phenylpropane-1,3-diol], the MIC was above 50 mg/mL with A. niger IMI 149007 (setting [3]); at most 100 mg/mL in the assay on A. niger IMI 149007 (setting [4]); above 50 mg/mL with C. albicans NCPF 3179 (setting [3]); at most 100 mg/mL with C. albicans NCPF 3179 (setting [4]); at most 3.12 mg/mL in the assay on E. coli NCIMB 8545 (setting [4]); above 25 mg/mL in assay [1] (setting [3]). Besides, the MIC is at most 50 mg/mL in assay [1] (setting [4]); above 3.12 mg/mL in the assay with P. vulgaris NCIMB 4175 (setting [3]); at most 6.25 mg/mL in the assay with P. vulgaris NCIMB 4175 (setting [4]); above 12.5 mg/mL with S. aureus NCIMB 9578 (setting [3]); at most 25 mg/mL in the assay with S. aureus NCIMB 9578 (setting [4]); above 50 mg/mL in assay [2] (setting [5]). Further, the MIC in assay [2] (setting [6]) is at most 100 mg/mL. Further, the “MIC value (ppm of diol), from” value against E. coli NCIMB 8545 (30° C., lower limit of MIC range) is listed as above 0 ppm.

On to `CC(O)CO` (stereo not drawn) [Propylene glycol, propylene glycol, reference compound], for which the MIC (in assay [1] (setting [3]); in the assay on P. vulgaris NCIMB 4175 (setting [3])) was above 100 mg/mL each time.
